Converted amounts (≈) assume the structure as drawn.
Legend:
[1] = 1-Octanol/PBS buffer distribution coefficient, log D of the compound at 1 uM measured after 24 hrs at pH 7.4 by shake flask based HPLC-ES-MS/MS analysis; format: physicochemical
[2] = Chromatographic hydrophobicity index of the compound in ammonium acetate buffer at pH 7.4 by RP-HPLC analysis; format: physicochemical
Cytochrome P450 3A4 = Cytochrome P450 3A4 (Homo sapiens, UniProt P08684); test: Inhibition of human recombinant CYP3A4 expressed in baculosomes by fluorescent homogenous assay; format: ADME
Sequence of Cytochrome P450 3A4 (P08684 whole entry): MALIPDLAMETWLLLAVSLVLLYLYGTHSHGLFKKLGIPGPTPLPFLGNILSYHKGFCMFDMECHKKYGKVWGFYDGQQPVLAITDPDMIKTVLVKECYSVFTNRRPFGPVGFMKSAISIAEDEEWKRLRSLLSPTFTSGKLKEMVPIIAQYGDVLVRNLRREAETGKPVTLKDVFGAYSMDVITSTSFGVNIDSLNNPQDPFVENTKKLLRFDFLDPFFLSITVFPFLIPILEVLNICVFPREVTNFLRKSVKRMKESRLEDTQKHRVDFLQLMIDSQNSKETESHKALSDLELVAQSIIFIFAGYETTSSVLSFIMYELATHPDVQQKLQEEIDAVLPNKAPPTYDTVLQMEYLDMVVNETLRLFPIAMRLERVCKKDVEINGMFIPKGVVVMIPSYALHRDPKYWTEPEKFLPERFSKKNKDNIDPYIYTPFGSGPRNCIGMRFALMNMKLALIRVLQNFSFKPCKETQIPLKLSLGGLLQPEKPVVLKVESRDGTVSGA

[3] = molecular target: T1, Amine oxidase [flavin-containing] A (Homo sapiens, UniProt P21397)
T1 sequence (P21397 whole entry): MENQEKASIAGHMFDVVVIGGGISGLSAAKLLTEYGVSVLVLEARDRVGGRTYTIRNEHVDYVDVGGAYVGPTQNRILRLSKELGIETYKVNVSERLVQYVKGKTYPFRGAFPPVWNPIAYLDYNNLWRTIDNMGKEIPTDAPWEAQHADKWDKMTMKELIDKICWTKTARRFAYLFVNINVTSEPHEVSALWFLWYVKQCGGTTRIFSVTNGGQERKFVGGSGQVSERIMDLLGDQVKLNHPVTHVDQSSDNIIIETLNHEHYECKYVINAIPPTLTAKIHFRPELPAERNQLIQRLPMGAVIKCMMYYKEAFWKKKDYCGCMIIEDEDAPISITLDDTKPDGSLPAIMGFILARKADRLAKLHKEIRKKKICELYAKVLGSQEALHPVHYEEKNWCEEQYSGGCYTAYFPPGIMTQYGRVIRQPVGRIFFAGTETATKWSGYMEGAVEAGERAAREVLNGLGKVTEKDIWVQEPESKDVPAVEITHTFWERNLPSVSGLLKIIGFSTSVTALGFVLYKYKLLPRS
Description: Inhibition of human recombinant MAO-A expressed in supersomes assessed as inhibition of 4-hydroxyquinoline formation using kynuramine as substrate by spectrofluorimetric analysis

Acetylcholinesterase = Acetylcholinesterase (Homo sapiens, UniProt P22303)
Sequence of Acetylcholinesterase (P22303 whole entry): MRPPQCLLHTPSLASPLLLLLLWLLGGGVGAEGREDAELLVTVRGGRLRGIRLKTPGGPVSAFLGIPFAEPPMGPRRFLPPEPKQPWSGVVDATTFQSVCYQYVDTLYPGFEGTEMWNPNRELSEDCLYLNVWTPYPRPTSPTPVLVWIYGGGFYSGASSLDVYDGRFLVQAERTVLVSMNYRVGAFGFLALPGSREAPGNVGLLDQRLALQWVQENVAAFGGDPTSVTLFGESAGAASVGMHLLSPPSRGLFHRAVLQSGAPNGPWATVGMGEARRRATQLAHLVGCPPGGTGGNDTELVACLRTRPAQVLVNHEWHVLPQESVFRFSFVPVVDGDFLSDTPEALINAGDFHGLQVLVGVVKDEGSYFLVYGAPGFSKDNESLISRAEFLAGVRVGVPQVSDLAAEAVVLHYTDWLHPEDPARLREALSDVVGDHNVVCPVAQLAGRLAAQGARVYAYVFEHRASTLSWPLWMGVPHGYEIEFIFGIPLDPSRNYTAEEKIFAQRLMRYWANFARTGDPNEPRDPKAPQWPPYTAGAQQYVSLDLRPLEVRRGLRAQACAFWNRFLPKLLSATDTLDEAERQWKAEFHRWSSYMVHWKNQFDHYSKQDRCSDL
Description: Inhibition of human recombinant AChE by Ellman's spectrophotometric assay

[4] = Intrinsic clearance in mouse liver microsomes at 0.5 uM incubated upto 30 mins in presence of NADPH measured per mg protein by LC/MS/MS analysis; format: ADME, Microsome; details: read-out: CLH
Cholinesterase = Cholinesterase (Equus caballus, UniProt P81908)
Sequence of Cholinesterase (P81908 whole entry): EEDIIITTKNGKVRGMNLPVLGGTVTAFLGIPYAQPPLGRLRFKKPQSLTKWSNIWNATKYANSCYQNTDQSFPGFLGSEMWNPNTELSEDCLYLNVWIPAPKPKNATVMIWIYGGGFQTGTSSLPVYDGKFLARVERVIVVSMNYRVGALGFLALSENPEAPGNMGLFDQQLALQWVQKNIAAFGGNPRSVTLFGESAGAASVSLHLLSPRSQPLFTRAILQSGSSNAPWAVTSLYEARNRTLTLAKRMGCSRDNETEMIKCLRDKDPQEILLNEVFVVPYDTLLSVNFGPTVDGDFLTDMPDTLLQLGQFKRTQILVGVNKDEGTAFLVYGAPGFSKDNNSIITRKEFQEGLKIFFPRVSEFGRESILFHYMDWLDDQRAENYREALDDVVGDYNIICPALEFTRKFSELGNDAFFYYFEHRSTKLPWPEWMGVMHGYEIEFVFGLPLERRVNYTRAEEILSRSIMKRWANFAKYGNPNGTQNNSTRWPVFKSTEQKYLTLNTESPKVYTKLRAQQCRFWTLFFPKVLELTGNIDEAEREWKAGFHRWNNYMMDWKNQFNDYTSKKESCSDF
Description: Inhibition of horse serum BChE by Ellman's spectrophotometric assay

[5] = Microsomal stability in mouse liver microsomes assessed as half life at 0.5 uM incubated upto 30 mins in presence of NADPH by LC/MS/MS analysis; format: ADME, Microsome
[6] = Kinetic aqueous solubility of the compound in PBS incubated for 2 hrs under mild shaking at pH 7.4 by UV- vis spectrophotometric analysis; format: physicochemical; details: read-out: Kinetic_solubility
[7] = molecular target: T2, Amine oxidase [flavin-containing] B (Homo sapiens, UniProt P27338)
T2 sequence (P27338 whole entry): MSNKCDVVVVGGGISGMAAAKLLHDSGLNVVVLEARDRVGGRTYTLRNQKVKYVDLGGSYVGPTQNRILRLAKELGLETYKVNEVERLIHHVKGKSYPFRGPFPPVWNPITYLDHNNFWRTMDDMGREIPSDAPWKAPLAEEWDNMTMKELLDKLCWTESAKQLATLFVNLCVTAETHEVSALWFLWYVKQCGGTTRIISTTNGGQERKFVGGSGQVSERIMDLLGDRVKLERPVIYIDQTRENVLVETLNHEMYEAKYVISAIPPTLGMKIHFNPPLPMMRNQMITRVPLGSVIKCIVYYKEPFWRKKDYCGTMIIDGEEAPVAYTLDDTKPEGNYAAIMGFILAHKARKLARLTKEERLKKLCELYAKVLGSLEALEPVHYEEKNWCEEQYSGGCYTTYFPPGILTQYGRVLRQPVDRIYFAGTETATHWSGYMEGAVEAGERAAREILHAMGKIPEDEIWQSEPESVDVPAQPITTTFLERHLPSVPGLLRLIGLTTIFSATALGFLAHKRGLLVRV
Description: Inhibition of human recombinant MAO-B expressed in supersomes assessed as inhibition of 4-hydroxyquinoline formation using kynuramine as substrate by spectrofluorimetric analysis

[8] = Effective permeability of the compound in PBS buffer at pH 7.4 by PAMPA-BBB assay; format: ADME; details: read-out: Peff
[9] = molecular target: T2, Amine oxidase [flavin-containing] B; test: Inhibition of human recombinant MAO-B expressed in supersomes assessed as inhibition of 4-hydroxyquinoline formation using kynuramine as substrate by spectrophotometric method
[10] = Apparent permeability across apical to basolateral side in human Caco-2 cells at 10 uM incubated for 60 mins by HPLC-MS/MS method; format: ADME, cell-based
[11] = Efflux ratio of apparent permeability across basolateral to apical side over apical to basolateral side in human Caco-2 cells; format: ADME, cell-based
[12] = Apparent permeability across basolateral to apical side in human Caco-2 cells at 10 uM incubated for 60 mins by HPLC-MS/MS method; format: ADME, cell-based
[13] = molecular target: Cholinesterase (Equus caballus) (UniProt P81908); test: Inhibition of horse serum BChE at 10 uM by Ellman's spectrophotometric assay; format: cell-free
Sequence of Cholinesterase (Equus caballus) (P81908 whole entry): as the sequence (P81908 whole entry) above

MAO-A = molecular target: T3, MAO-A (Homo sapiens, UniProt P21397); test: in vitro; details: recombinant MAO-A expressed in supersomes, probe kynuramine
T3 sequence (P21397 whole entry): T1 sequence (P21397 whole entry)

Homo sapiens = species on record: Homo sapiens; test: Selectivity for human recombinant MAO-B expressed in supersomes over human recombinant MAO-A expressed in supersomes

Structure (SMILES)	logD at 24 h, 1 µM [1]	CHI [2]	IC50 (Cytochrome P450 3A4) [µM]	IC50 [3] [µM]	IC50 (Acetylcholinesterase) [µM]	microsomal CLint at 0.5 µM [4] [µL/min/mg]	IC50 (Cholinesterase) [µM]	half-life at 0.5 µM [5] [min]	solubility kinetic at 2 h [6] [µM]	IC50 [7] [µM]	Papp [8] [nm/s]	inhibition (INH) [9]	Papp A→B at 1 h, 10 µM [10] [nm/s]	efflux ratio [11]	Papp B→A at 1 h, 10 µM [12] [nm/s]	inhibition [13] [%]	inhibition at 10 µM (MAO-A) [%]	Selectivity Index (Homo sapiens)
Cc1c(C)c2ccc(OCc3cccc(CN(C)CCCC(F)F)c3)cc2oc1=O	3.65	> 100	0.6	4.2	1.7	289	1.6	4.8	13 (≈ 5.4 µg/mL)	0.56	–	–	–	–	–	–	–	–
Cc1c(C)c2ccc(OCC3CCCN(Cc4cccc(F)c4)C3)cc2oc1=O (racemic)	4.38	> 100	–	2	1.2	210	2	6.6	20 (≈ 7.91 µg/mL)	0.012	100	–	–	–	–	–	–	–
Cc1c(C)c2ccc(OCC3CCN(Cc4cccc(F)c4)CC3)cc2oc1=O	3.43	> 100	–	2.5	0.46	225	2.9	6.2	11 (≈ 4.35 µg/mL)	0.14	–	Active	–	–	–	–	–	–
Cc1c(C)c2ccc(OCC3CCN(Cc4ccccc4)CC3)cc2oc1=O	3.4	99.7	–	–	0.38	206	–	6.7	57 (≈ 21.5 µg/mL)	–	–	–	70	1.6	120	–	–	–
CN(Cc1ccccc1)Cc1ccc(COc2ccc3c(CO)cc(=O)oc3c2)cc1	3.81	99.3	–	–	–	43.9	–	31.7	–	–	–	–	–	–	–	–	–	–
Cc1c(C)c2ccc(OCC3CCN(Cc4cccc(C(F)(F)F)c4)CC3)cc2oc1=O	5.05	> 100	–	1.4	0.47	146	–	9.5	0.9 (≈ 0.401 µg/mL)	0.13	–	–	–	–	–	35	–	–
Cc1c(C)c2ccc(OCC3CCCN(CCCC(F)F)C3)cc2oc1=O (racemic)	2.67	83.4	> 10	11	0.48	78.1	–	17.8	349 (≈ 132 µg/mL)	0.26	133	–	–	–	–	22	–	–
Cc1c(C)c2ccc(OCc3ccc(CN(C)CCCC(F)F)cc3)cc2oc1=O	3.78	> 100	–	–	1.5	–	4.1	–	13 (≈ 5.4 µg/mL)	0.16	–	–	–	–	–	–	45	–
Cc1c(C)c2ccc(OCCCN(Cc3cccc(F)c3)C(C)C)cc2oc1=O	–	> 100	–	8.1	0.91	–	–	–	13 (≈ 5.17 µg/mL)	0.35	–	Active	–	–	–	22	–	–
CCN(CCCOc1ccc2c(C)c(C)c(=O)oc2c1)Cc1cccc(F)c1	–	> 100	–	7.8	1.2	260	4.3	5.3	18 (≈ 6.9 µg/mL)	0.073	–	–	–	–	–	–	–	–
CN(Cc1ccccc1)Cc1ccc(COc2ccc3c(C(F)F)cc(=O)oc3c2)cc1	4.8	> 100	–	–	0.56	142	0.43	9.8	0.4 (≈ 0.174 µg/mL)	0.13	–	–	–	–	–	–	17	> 73
CN(CCCO)Cc1ccc(COc2ccc3c(CO)cc(=O)oc3c2)cc1	–	35.6	–	–	2.2	–	–	–	> 500	0.42	31	–	–	–	–	27	13	–
Cc1c(C)c2ccc(OCC3CCCN(Cc4ccccc4)C3)cc2oc1=O (racemic)	3.65	> 100	–	–	–	265	–	5.3	33 (≈ 12.5 µg/mL)	–	–	–	–	–	–	–	–	–

Source: ChEMBL document CHEMBL5046285, “Probing Fluorinated Motifs onto Dual AChE-MAO B Inhibitors: Rational Design, Synthesis, Biological Evaluation, and Early-ADME Studies” (J Med Chem, 2022)
